Series [1] relates to PS1 WT or FAD mutant γ‐secretase. As to the kind of experiment: ELISA of Aβ species in conditioned media of HEK293/sw cells overexpressing WT or mutant PS1. It is filed as cell-based, human. How it is done:
For GSM treatments, the cells were grown to a confluence of 70–80%. Thereafter, medium was changed to fresh medium containing either DMSO vehicle control or GSM at the indicated concentration and the cells were incubated for 16–18 h before Aβ analysis of conditioned medium. […] Mouse N2a cells stably overexpressing swAPP were cultured in DMEM (high glucose) supplemented with 10% FCS and 1 mM sodium pyruvate and treated with GSM as described above.
(§1) Immunoblot analysis of PS1 and PS2, NCT, full‐length APP, C‐terminal APP fragments, secreted APPs, and Aβ was performed as described 52. To analyze GSM dose responses and determine IC50 values for Aβ42 inhibition, secreted Aβ species of HEK293/sw cells were analyzed by sandwich immunoassay (MSD) using SULFO‐tagged C‐terminal specific antibodies to Aβ38, Aβ40, and Aβ42 as described before 26 or, in case of H4/sw and N2a/sw cells by an Aβ42 AlphaLISA immunoassay kit according to the instructions of the supplier (PerkinElmer). Notch1 cleavage reporter assay was carried out as described 51. GSM‐mediated changes of secreted Aβ species in conditioned medium of PS1 WT or mutant expressing HEK293/sw cells were quantified by ELISA using end‐specific C‐terminal antibodies to Aβ38, Aβ40, Aβ42, and Aβ43 obtained from IBL as described previously 16. Mass spectrometry analysis of secreted Aβ species was performed after immunoprecipitation using antibody 4G8 as described previously 17. Individual Aβ species were analyzed by immunoblotting, using Tris–Bicine urea SDS–PAGE 53. To improve the separation of longer Aβ species (e.g., Aβ42/43), the separation gel was adjusted to 8% acrylamide and 8 M urea. Aβ37 and Aβ38 generated in cell‐free γ‐secretase assays were analyzed by sandwich immunoassay (MSD) as above using SULFO‐tagged species‐specific antibodies. AICD generation in these assays was analyzed by immunoblotting with Penta‐His antibody after sample separation on 10–20% Tris–Tricine gels (Invitrogen). Protein bands from immunoblots were quantified using the LAS‐4000 image reader (Fujifilm Life Science) and Multi‐Gauge V3.0 software for analysis.
Background: In an ELISA, binding on a coated surface is turned into a signal by an enzyme label.

The next series deals with Notch1 cleavage. As to the kind of experiment: HEK293 cell‐based Notch1 luciferase reporter assay. The following applies: Homo sapiens; HEK293‐based Notch1 luciferase reporter cell line; n = 2. How it is done:
(§2) Single‐cell clones of HEK293 cells stably co‐expressing swAPP with WT and mutant PS1 constructs were cultured as described 50. For GSM treatments, the cells were grown to a confluence of 70–80%. Thereafter, medium was changed to fresh medium containing either DMSO vehicle control or GSM at the indicated concentration and the cells were incubated for 16–18 h before Aβ analysis of conditioned medium. Single‐cell clones of H4 overexpressing swAPP and HEK293‐based Notch1 reporter cell lines were cultured and treated with GSM as described 51. […]
(§3) Immunoblot analysis of PS1 and PS2, NCT, full‐length APP, C‐terminal APP fragments, secreted APPs, and Aβ was performed as described 52. To analyze GSM dose responses and determine IC50 values for Aβ42 inhibition, secreted Aβ species of HEK293/sw cells were analyzed by sandwich immunoassay (MSD) using SULFO‐tagged C‐terminal specific antibodies to Aβ38, Aβ40, and Aβ42 as described before 26 or, in case of H4/sw and N2a/sw cells by an Aβ42 AlphaLISA immunoassay kit according to the instructions of the supplier (PerkinElmer). […] GSM‐mediated changes of secreted Aβ species in conditioned medium of PS1 WT or mutant expressing HEK293/sw cells were quantified by ELISA using end‐specific C‐terminal antibodies to Aβ38, Aβ40, Aβ42, and Aβ43 obtained from IBL as described previously 16. […]
On the technique in general: In a reporter assay the amount or activity of a reporter protein is the signal.

Series [2] concerns γ‐secretase (total Aβ secretion in HEK293/sw cells). As to the kind of experiment: Immunoblot analysis of total Aβ in conditioned media of HEK293/sw cells. It is filed as cell-based, human. The procedure: as §2, §3
For orientation: Immunoblotting shows a protein as a band on a membrane.

Series [3] relates to PS1 WT or FAD mutant γ‐secretase. As to the kind of experiment: Mass spectrometry analysis of Aβ species from HEK293/sw cells overexpressing WT or mutant PS1. It is filed as cell-based, human. The note with it: all mutants, 500 nM. The procedure:
as §2, §3

The subject of series [4] is C99–PS1 interaction (CHAPSO‐solubilized γ‐secretase). As to the kind of experiment: C99 V44Bpa photocrosslinking to PS1 in CHAPSO lysates. It is filed as binding, human. The procedure:
Bpa‐containing C99‐based γ‐secretase substrates were prepared as described previously 22. CHAPSO‐lysates were prepared from HEK293/sw cells co‐expressing either PS1 WT or PS1 mutants. Photocrosslinking was performed as described before 22. Crosslinking of the substrates was analyzed by immunoblotting using antibodies against the PS1 NTF as described 22. For substrate crosslinking experiments in the presence of RO7019009, the cell lysates were pre‐incubated for 30 min on ice with RO7019009 or DMSO vehicle before the addition of C99 V44Bpa and subsequent photocrosslinking.

Series [5] has as its system CHAPSO‐solubilized γ‐secretase. Kind of series: Cell‐free γ‐secretase assay with recombinant C100‐His6 (AICD generation). The note with it: 2.5 μM, WT and mutant PS1. Type of series: biochemical, human. How it is done: as §1, with “Mass spectrometry analysis of secreted Aβ species was performed after immunoprecipitation using antibody 4G8 as described previously 17.” left out, “To improve the separation of longer Aβ species (e.g., Aβ42/43), the separation gel was adjusted to 8% acrylamide and 8 M urea.” left out, “analysis. […]” for “analysis.”

Another series can be described thus: Solubility. It is filed as physicochemical. An excerpt: Supplement EMBR-21-e47996-s003.docx, table 1: Table EV1. RO7019009 key physicochemical and pharmacokinetic properties predicting CNS drug-likeness | column: Solubility (µg/ml)
The nature of series [6]: LogD (octanol-water distribution coefficient). Type of series: physicochemical. The following applies: pH 7.4. An excerpt: (§4) ^aLogD= logarithm of the octanol-water distribution coefficient at pH 7.4; ^bPAMPA: Parallel artificial membrane parallel assay; ^cCLmicr (h/m): human/mouse microsomal clearance
The next series is described as follows: PAMPA permeability. It is filed as in vitro ADME.
From the text: as §4

Series [7] can be described thus: Human microsomal clearance. It is filed as in vitro ADME. The following applies: human microsomes, read-out: CLmicr human microsomal clearance.
From the text: as §4

The nature of series [8]: Mouse microsomal clearance. It is filed as in vitro ADME. The following applies: mouse microsomes, read-out: CLmicr mouse microsomal clearance.
From the text: as §4

Series [9] addresses C99 V44Bpa. As to the kind of experiment: photocrosslinking of C99 V44Bpa to PS1 NTF, immunoblot quantitation. The note with it: box plot median, n = 7–11 biological replicates, read off a plot.
Series [10] addresses C99 V44Bpa. As to the kind of experiment: photocrosslinking of C99 V44Bpa to full-length PS1, immunoblot quantitation. The following applies: box plot median, n = 7–11 biological replicates, read off a plot.
Where [11] appears, read: PS1 L166P mutant, HEK293/sw cells.
The mark [12] stands for this setting: PS1 R278I and L166P mutants, HEK293/sw cells.
[13] abbreviates: PS1 R278I mutant, HEK293/sw cells.
[14] abbreviates: RO7019009 50 nM, parent: est. 1.0.
The mark [15] stands for this setting: RO7019009 500 nM, parent: est. 0.90.
The mark [16] stands for this setting: RO7019009 2500 nM, parent: est. 0.49.

The values that follow come from publication PMC6945062, “Aβ43‐producing PS1 FAD mutants cause altered substrate interactions and respond to γ‐secretase modulation” (EMBO Reports, 2019).

Converted amounts (≈) assume the structure as drawn.

For the compound `CC(C)CC[C@H](c1ccc(Cl)cc1)N1CC[C@@H](CC(=O)O)C[C@H]1c1ccc(C(F)(F)F)cc1` [GSM‐1], the Aβ43 production entry in series [1] (setting [11]) is listed as “only poorly, if at all”; in series [1] (setting [13]) it was “weakly reduced”. The Aβ42 levels result in series [1] (setting [12]) was “remained unaffected”.

A word on the IC50: it is the point on the concentration scale where inhibition reaches its midpoint. A higher IC50 goes with weaker potency. By solubility is commonly meant the concentration that dissolves in the medium under given conditions. A high value points to much dissolved substance. As usually defined, the logD is the decadic logarithm of the distribution of all forms, ionised or not, between an organic phase and buffer at a given pH. In the series with Notch1 cleavage, `Cc1nsc(N2C[C@H]3CC[C@@H](C2)[C@@H]3Nc2nc3c(-c4ccc(F)c(F)c4F)cccn3n2)n1` [RO7019009] gave an IC50 of over 10 µM. The Aβ42 levels entry is listed as “remained largely unaffected” in [1] (PS1 L166P mutant, 50 to 500 nM); “small, yet significant, reproducible reduction” in series [1] (V261F, R278I and L166P mutants, 500 nM). The “Aβ42‐lowering response” value in series [1] (PS1 V261F and R278I mutants, 50 to 500 nM) is given as “partially resistant”. In addition, the “generation of Aβ43” value in series [1] (all PS1 mutants, 50 to 500 nM) is recorded as “reduced the generation of Aβ43 for all mutants”. Further, the “total Aβ levels” value in [2] is listed as “did not reduce”. Moreover, the Aβ40 levels entry in series [3] is reported as “nearly complete reduction”. Besides, in series [4] (PS1 Y256S and R278I mutants), the “crosslinking of C99 V44Bpa to PS1” value is “unchanged crosslinking”. Further, the “crosslinking of C99 V44Bpa to PS1 NTF” value in series [4] (WT PS1, increasing concentrations) is on record as “reduced”. Moreover, the “total AICD generation” value in series [5] is “not or only marginally reduced”. Further, the concentration in solution in “Solubility” (solubility) came to 3 µg/mL (≈ 6.36 µM). In series [6], this compound registered a logD of 4. For the same compound, in the series “PAMPA permeability”, the “PAMPA (permeability)” value is on record as “High”. For the same compound, the microsomal CLint in [7] and in series [8] was under 10 µL/min/mg each time.

On to `COc1cc(Nc2cc(Cc3ccc(Cl)cc3)cc(C(C)(C)O)c2)ccc1-n1cnc(C)c1` [RO‐02], for which the Aβ43 production result in series [1] (setting [11]) is “only poorly, if at all”; in series [1] (setting [13]), “weakly reduced”. The Aβ42 levels result in series [1] (setting [12]) is given as “remained unaffected”.

With “presenilin 1 (PS1) WT (from UniProt P49768) G382A”, the other: V44 CL efficiency (Rel. to DMSO-treated), median with C99 V44Bpa [9] (setting [14]) stood at 0.93; with C99 V44Bpa [9] (setting [15]) it was 0.87; with C99 V44Bpa [9] (setting [16]), 0.67.

Regarding “presenilin 1 (PS1) WT (from UniProt P49768) L166P”, the other: V44 CL efficiency (Rel. to DMSO-treated), median was found to be 1 with C99 V44Bpa [9] (setting [14]), 0.93 with C99 V44Bpa [9] (setting [15]) and 0.73 with C99 V44Bpa [9] (setting [16]).

For “presenilin 1 (PS1) WT (from UniProt P49768) L435F”, the other: V44 CL efficiency (Rel. to DMSO-treated), median is 1 with C99 V44Bpa [10] (RO7019009 50 nM), 0.78 in the series with C99 V44Bpa [10] (RO7019009 500 nM) and 0.6 in the series with C99 V44Bpa [10] (RO7019009 2500 nM).

“presenilin 1 (PS1) WT (from UniProt P49768) M292D”: the other: V44 CL efficiency (Rel. to DMSO-treated), median with C99 V44Bpa [10] (RO7019009 50 nM) came out at 1.1; with C99 V44Bpa [10] (RO7019009 500 nM), 0.92; with C99 V44Bpa [10] (RO7019009 2500 nM) it was 0.65.

“presenilin 1 (PS1) WT (from UniProt P49768) R278I”: the results for the other: V44 CL efficiency (Rel. to DMSO-treated), median in the series with C99 V44Bpa [10] (RO7019009 50 nM), in the series with C99 V44Bpa [10] (RO7019009 500 nM) and in the series with C99 V44Bpa [10] (RO7019009 2500 nM) were 1, 1 and 0.92, respectively.

As for “presenilin 1 (PS1) WT (from UniProt P49768) V261F”, the other: V44 CL efficiency (Rel. to DMSO-treated), median with C99 V44Bpa [10] (RO7019009 50 nM) was determined as 0.95; with C99 V44Bpa [10] (RO7019009 500 nM), 0.65; in the series with C99 V44Bpa [10] (RO7019009 2500 nM), 0.62.

On to “presenilin 1 (PS1) WT (from UniProt P49768) Y256S”, for which the figures for the other: V44 CL efficiency (Rel. to DMSO-treated), median in the series with C99 V44Bpa [9] (setting [14]), with C99 V44Bpa [9] (setting [15]) and with C99 V44Bpa [9] (setting [16]) were 1.1, 0.88 and 0.95, respectively.
